{"source": "patent US10500222B2", "about": "“Compositions and methods relating to treatment of infection” (Wayne State University, priority 2015, dated 2019)", "type_in_all_cases": "in vivo, C57BL/6 (B6) mice", "conditions_in_all_cases": "vs PBS", "key": {"[1]": {"tested_on": "P. aeruginosa KEI 1025 infected cornea", "test": "Histopathology of eyes infected with KEI 1025", "protocol": "(§1) The left eyes of B6 mice (n=5/group/time) were injected with 5 μl of 2 μg/μl glycyrrhizin (GLY) (Sigma-Aldrich, St. Louis, Mo.) or PBS (control) subconjunctivally, one day before infection. Similar treatment was done using carbenoxolone (CBX) (Sigma-Aldrich, St. Louis, Mo.). All mice were injected intraperitoneally (IP) at 1 and 3 days p.i. with 100 μl of GLY (2 μg/μl) or CBX (1 μg/μl). PBS served as control for all these experiments. In a separate similar experiment mice were treated one day before infection with GLY subconjunctivally and injected intraperitoneally (i.p.) with GLY plus recombinant (r) HMGB1 (1 μg/100 μl) or GLY plus PBS. IP injections were similarly given at 1 and 3 days p.i. In an additional experiment, KEI 1025 infected B6 mice were treated with 5 μl of 2 μg/μl GLY subconjunctivally at 6 hours p.i. and injected intraperitoneally at 1 and 3 days p.i. with 100 μl of GLY (2 μg/μl).\nWhole eyes infected with KEI 1025 (n=3/group/time) were enucleated from GLY or PBS treated B6 mice at 3 and 5 days p.i. Eyes were immersed in PBS, rinsed, and fixed in 1% osmium tetroxide, 2.5% glutaraldehyde, and 0.2 M Sorenson's phosphate buffer (pH 7.4) (1:1:1) at 4° C. for 3 h. Eyes were rinsed with 0.1 M phosphate buffer, dehydrated in graded ethanols and propylene oxide, and then infiltrated and embedded in Epon-araldite. Thick sections (1.5 μm) were cut, stained with Richardson's stain, observed, and photographed (Leica DM4000B, Leica Microsystems, Inc.).\nThe left eyes of B6 mice (n=5/group/time) were infected as above with Pseudomonas KEI 1025 strain. These infected B6 mice were treated by topical administration of GLY. Pseudomonas aeruginosa infected left cornea received 5 μL of GLY (20 μg/μL) topically beginning 6 (or 8) hours post infection and continued 2× daily for days 1-4 post infection."}, "[2]": {"tested_on": "mRNA levels in P. aeruginosa ATCC strain 19660 infected cornea", "test": "Real time RT-PCR of cornea, strain 19660 infection", "protocol": "as §1\nKEI 1025 or ATCC strain 19660 infected GLY or PBS treated mice were sacrificed at 5 days p.i. and the normal, contralateral (uninfected) and infected cornea was harvested. For each cornea, total RNA was isolated (RNA STAT-60™; Tel-Test, Friendswood, Tex.) according to the manufacturer's instructions. Upon spectrophotometric quantification at 260 nm, 1 μg of each RNA sample was reverse transcribed using Moloney-murine leukemia virus (M-MLV) reverse transcriptase (Invitrogen, Carlsbad, Calif.) to produce a cDNA template for the PCR reaction. cDNA products were diluted 1:25 with diethylpyrocarbonate (DEPC)-treated water. A 2 μl aliquot of diluted cDNA was used for the real-time RT-PCR reaction with Real-Time SYBR® Green/Fluorescein PCR Master Mix (Bio-Rad) and primer concentrations of 10 μM (total 10 μl reaction volume). After a pre-programmed hot start cycle (3 min at 95° C.), the parameters used for PCR amplification were: 15 sec at 95° C. and 60 sec at 60° C. with the cycles repeated 45 times. Optimal conditions for PCR amplification of cDNA were established using routine methods. mRNA levels of HMGB1, RAGE, IL-1β, TLR2, TLR4, CXCL2, TNF-α, NLR family pyrin domain containing 3 (NLRP3), NLR family CARD domain containing 4 (NLRC4), IL-12, TGF-β, IL-10, single Ig IL-1-related receptor (SIGIRR) and interleukin 1 receptor-like 1 (ST2) were tested by real-time RT-PCR (CFX Connect™ Real-Time PCR Detection System; Bio-Rad, Richmond, Calif.). The fold differences in gene expression were calculated after normalization to β-actin and expressed as the relative mRNA concentration+SEM."}, "[3]": {"tested_on": "protein levels in P. aeruginosa ATCC strain 19660 infected cornea", "test": "ELISA of corneal proteins, strain 19660 infection", "protocol": "as §1\nKEI 1025 or ATCC strain 19660 infected GLY or PBS treated, B6 mice (n=5/group/time) were sacrificed at 3 and 5 days p.i. and normal and infected corneas harvested. To quantify IL-1β and CXCL2 proteins, individual corneas were homogenized in 1 ml of 50 mM potassium phosphate buffer (pH 6.0) containing 0.5% HTAB (hexadecyltrimethylammonium bromide, Sigma). To quantify HMGB1, cathelicidin-related antimicrobial peptide (CRAMP), mouse beta defensin 2 (mBD2) and mouse beta defensin 3 (mBD3) protein levels, individual corneas were homogenized in 500 μl of PBS containing 0.1% Tween 20 (Sigma) and protease inhibitors (Roche, Indianapolis, Ind.). Corneal homogenates were centrifuged at 12,000 g for 10 min. A 50 μl aliquot of each supernatant was assayed in duplicate to quantify IL-1β, CXCL2, HMGB1 and mBD2 proteins. A 100 μl aliquot of CRAMP and mBD3 supernatant was assayed in duplicate to quantify corresponding protein levels. Undiluted supernatant aliquots were used to quantify all proteins except CXCL2 (1:2 dilution) and HMGB1 (1:5 dilution). An HMGB1 ELISA kit was purchased from Chondrex Inc., Redmond, Wash. CRAMP, mBD2 and mBD3 ELISA kits were purchased from MyBioSource, Inc., San Diego, Calif. All other ELISA kits were purchased from R&D Systems, Minneapolis, Minn. Assays were run following the manufacturer's instructions. Sensitivities of the assays were: 2.31 […] (mBD3)."}, "[4]": {"conditions": "strain 19660 experiment, normal cornea"}}, "note": "“Also recorded” adds a separate entry of the source."}
{"smiles": "CC1(C)[C@@H](O[C@H]2O[C@H](C(=O)O)[C@@H](O)[C@H](O)[C@H]2O[C@@H]2O[C@H](C(=O)O)[C@@H](O)[C@H](O)[C@H]2O)CC[C@]2(C)[C@H]3C(=O)C=C4[C@@H]5C[C@@](C)(C(=O)O)CC[C@]5(C)CC[C@@]4(C)[C@]3(C)CC[C@@H]12", "note": "[GLY, glycyrrhizin]", "values": [{"measurement": "histopathology: cellular infiltrate, corneal destruction", "setting": "[1]; pretreatment subconj. + IP, 3 days p.i.", "result": "markedly reduced cellular infiltrate; also recorded: reduced corneal destruction and infiltrate"}, {"measurement": "histopathology: cellular infiltrate, damage to the cornea", "setting": "[1]; pretreatment subconj. + IP, 5 days p.i.", "result": "markedly reduced cellular infiltrate; also recorded: reduced damage to the cornea and a decreased cellular infiltrate"}, {"measurement": "histopathology: damage to the cornea, cellular infiltrate", "setting": "[1]; topical GLY from 6 hours p.i. and days 1-4 twice each day, 5 days p.i.", "result": "reduced damage to the cornea and a decreased cellular infiltrate"}, {"measurement": "mRNA levels of CXCL2", "setting": "[2]; strain 19660, 5 days p.i.", "result": "slightly, but not significantly decreased"}, {"measurement": "Relative mRNA levels for HMGB1", "setting": "[2]; strain 19660, infected cornea 5 days p.i.", "result": "no different"}, {"measurement": "CXCL2 mRNA", "setting": "[2]; [4]", "result": "No differences"}, {"measurement": "Relative mRNA levels for HMGB1", "setting": "[2]; strain 19660 experiment, uninfected, normal cornea", "result": "no different"}, {"measurement": "CXCL2 protein levels", "setting": "[3]; strain 19660, 3 days p.i.", "result": "downregulated significantly"}, {"measurement": "CXCL2 protein levels", "setting": "[3]; strain 19660, 5 days p.i.", "result": "downregulated significantly"}, {"measurement": "HMGB1 protein", "setting": "[3]; strain 19660, normal cornea and infected groups", "result": "no significant differences"}, {"measurement": "CXCL2 protein", "setting": "[3]; [4]", "result": "No differences"}]}
